Measured values from patent publication US20070043049A1, “Substituted heterocyclic diarylamine analogues” (Neurogen Corporation, priority 2003, published 2007).

Target: T1, human capsaicin receptor (Homo sapiens, UniProt Q8NER1)
T1 construct: pBK-CMV expression construct encoding the full length human capsaicin receptor; expressed in transfected cells
Assay: Calcium mobilization assay, determination of antagonist activity (Example 6)
Assay type: cell-based
Details: 50% decrease in fluorescence response of cells expressing human capsaicin receptor exposed to capsaicin
Experimental: A cDNA encoding full length human capsaicin receptor (SEQ ID NO:1, 2 or 3 of U.S. Pat. No. 6,482,611) was subcloned in the plasmid pBK-CMV (Stratagene, La Jolla, Calif.) for recombinant expression in mammalian cells.
Human embryonic kidney (HEK293) cells were transfected with the pBK-CMV expression construct encoding the full length human capsaicin receptor using standard methods. The transfected cells were selected for two weeks in media containing G418 (400 μg/ml) to obtain a pool of stably transfected cells. Independent clones were isolated from this pool by limiting dilution to obtain clonal stable cell lines for use in subsequent experiments.
Cells transfected with expression plasmids (as described in Example 4) and thereby expressing human capsaicin receptor are seeded and grown to 70-90% confluency in FALCON black-walled, clear-bottomed 96-well plates (#3904, BECTON-DICKINSON, Franklin Lakes, N.J.). The culture medium is emptied from the 96 well plates and FLUO-3 AM calcium sensitive dye (Molecular Probes, Eugene, Oreg.) is added to each well (dye solution: 1 mg FLUO-3 AM, 440 μL DMSO and 440 μl 20% pluronic acid in DMSO, diluted 1:250 in Krebs-Ringer HEPES (KRH) buffer (25 mM HEPES, 5 mM KCl, 0.96 mM NaH2PO4, 1 mM MgSO4, 2 mM CaCl2, 5 mM glucose, 1 mM probenecid, pH 7.4), 50 μl diluted solution per well). Plates are covered with aluminum foil and incubated at 37° C. for 1-2 hours in an environment containing 5% CO2. After the incubation, the dye is emptied from the plates, and the cells are washed once with KRH buffer, and resuspended in KRH buffer.
To measure the ability of a test compound to agonize or antagonize a calcium mobilization response in cells expressing capsaicin receptors to capsaicin or other vanilloid agonist, the EC50 of the agonist capsaicin is first determined. An additional 20 μl of KRH buffer and 1 μl DMSO is added to each well of cells, prepared as described above. 100 μl capsaicin in KRH buffer is automatically transferred by the FLIPR instrument to each well. Capsaicin-induced calcium mobilization is monitored using either FLUOROSKAN ASCENT (Labsystems; Franklin, Mass.) or FLIPR (fluorometric imaging plate reader system; Molecular Devices, Sunnyvale, Calif.) instruments. Data obtained between 30 and 60 seconds after agonist application are used to generate an 8-point concentration response curve, with final capsaicin concentrations of 1 nM to 3 μM. KALEIDAGRAPH software (Synergy Software, Reading, Pa.) is used to fit the data to the equation: y=a*(1/(1+(b/x)^c)) to determine the 50% excitatory concentration (EC50) for the response. In this equation, y is the maximum fluorescence signal, x is the concentration of the agonist or antagonist (in this case, capsaicin), a is the Emax, b corresponds to the EC50 value and c is the Hill coefficient. Determination of Agonist Activity
Test compounds are dissolved in DMSO, diluted in 20 μl KRH buffer so that the final concentration of test compounds in the assay well is between 1 μM and 5 μM, and added to cells prepared as described above. The 96 well plates containing prepared cells and test compounds are incubated in the dark, at room temperature for 0.5 to 6 hours. It is important that the incubation not continue beyond 6 hours. Just prior to determining the fluorescence response, 100 μl capsaicin in KRH buffer at twice the EC50 concentration determined as described above is automatically added by the FLIPR instrument to each well of the 96 well plate for a final sample volume of 200 μl and a final capsaicin concentration equal to the EC50. The final concentration of test compounds in the assay wells is between 1 μM and […]. […] The concentration of antagonist required to provide a 50% decrease, relative to the response observed in the presence of capsaicin and without antagonist, is the IC50 for the antagonist, and is preferably below 1 micromolar, 100 nanomolar, 10 nanomolar or 1 nanomolar.

T1 sequence (Q8NER1 whole entry): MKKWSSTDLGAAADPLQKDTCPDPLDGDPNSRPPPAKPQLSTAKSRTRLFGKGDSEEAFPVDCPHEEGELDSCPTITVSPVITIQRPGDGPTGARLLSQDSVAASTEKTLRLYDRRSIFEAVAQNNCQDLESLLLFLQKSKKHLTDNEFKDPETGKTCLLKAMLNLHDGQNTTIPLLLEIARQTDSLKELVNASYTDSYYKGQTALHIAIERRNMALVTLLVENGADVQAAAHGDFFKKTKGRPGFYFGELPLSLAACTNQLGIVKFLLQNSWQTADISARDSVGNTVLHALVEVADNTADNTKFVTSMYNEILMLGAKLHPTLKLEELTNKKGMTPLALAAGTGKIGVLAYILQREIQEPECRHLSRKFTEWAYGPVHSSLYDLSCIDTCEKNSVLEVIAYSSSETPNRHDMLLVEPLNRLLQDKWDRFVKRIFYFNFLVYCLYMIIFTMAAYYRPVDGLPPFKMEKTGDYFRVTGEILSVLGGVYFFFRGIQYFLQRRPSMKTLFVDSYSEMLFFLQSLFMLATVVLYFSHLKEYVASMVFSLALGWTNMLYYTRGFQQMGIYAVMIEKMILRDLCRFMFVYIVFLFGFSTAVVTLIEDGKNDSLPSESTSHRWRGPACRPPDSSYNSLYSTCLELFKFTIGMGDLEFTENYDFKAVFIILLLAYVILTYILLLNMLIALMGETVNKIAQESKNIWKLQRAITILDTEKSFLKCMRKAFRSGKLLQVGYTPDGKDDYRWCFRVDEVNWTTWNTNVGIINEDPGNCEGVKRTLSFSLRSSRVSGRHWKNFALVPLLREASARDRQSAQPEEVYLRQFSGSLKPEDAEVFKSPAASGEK

| IC50 | SMILES |
| --- | --- |
| ≤ 1 µM | C=CCN(CC=C)c1nc(Nc2ccc(C(F)(F)F)cc2)nc(N2CCN(c3ncccc3Cl)C[C@H]2C)n1 [Compound 32, N,N-Diallyl-6-[4-(3-chloro-pyridin-2-yl)-2-methyl-piperazin-1-yl]-N′-(4-trifluoromethyl-phenyl)-[1,3,5]triazine-2,4-diamine (R)] |
| ≤ 1 µM | CCCN(C)c1nc(Nc2ccc(C(F)(F)F)cc2)nc(N2CCN(c3ncccc3Cl)C[C@H]2C)n1 [Compound 30, 6-[4-(3-Chloro-pyridin-2-yl)-2-methyl-piperazin-1-yl]-N-methyl-N-propyl-N′-(4-trifluoromethyl-phenyl)-[1,3,5]triazine-2,4-diamine (R)] |
| ≤ 1 µM | CC(C)N(C)c1nc(Nc2ccccc2)nc(N2CCN(c3ncccc3Cl)CC2)n1 [Compound 54, 6-[4-(3-Chloro-pyridin-2-yl)-piperazin-1-yl]-N-isopropyl-N-methyl-N′-phenyl-[1,3,5]triazine-2,4-diamine] |
| ≤ 1 µM | C[C@@H]1CN(c2ncccc2Cl)CCN1c1nc(Nc2ccc(C(F)(F)F)cc2)nc(OCc2ccccc2C(F)(F)F)n1 [Compound 8, [4-[4-(3-Chloro-pyridin-2-yl)-2-methyl-piperazin-1-yl]-6-(2-trifluoromethyl-benzyloxy)-[1,3,5]triazin-2-yl]-(4-trifluoromethyl-phenyl)-amine (R)] |
| ≤ 1 µM | FC(F)(F)c1ccc(Nc2nc(N3CCOCC3)nc(N3CCN(c4ncccc4Cl)CC3)n2)cc1 [Compound 96, {4-[4-(3-Chloro-pyridin-2-yl)-piperazin-1-yl]-6-morpholin-4-yl-[1,3,5]triazin-2-yl}-(4-trifluoromethyl-phenyl)-amine] |
| ≤ 1 µM | FC(F)(F)c1cccnc1N1CCN(c2nc(Nc3cccc(Cl)c3)nc(N3CCOCC3)n2)CC1 [Compound 67, (3-Chloro-phenyl)-{4-morpholin-4-yl-6-[4-(3-trifluoromethyl-pyridin-2-yl)-piperazin-1-yl]-[1,3,5]triazin-2-yl}-amine] |
| ≤ 1 µM | C[C@@H]1CN(c2ncccc2Cl)CCN1c1nc(Nc2cccc(F)c2)nc(N2CCOCC2)n1 (stereo in doubt) [Compound 104, {4-[4-(3-Chloro-pyridin-2-yl)-2-methyl-piperazin-1-yl]-6-morpholin-4-yl-[1,3,5]triazin-2-yl}-(3-fluoro-phenyl)-amine] |
| ≤ 1 µM | C[C@@H]1CN(c2ncccc2Cl)CCN1c1nc(Cl)cc(Nc2ccc(C(F)(F)F)cc2)n1 [Compound 17, {6-Chloro-2-[4-(3-chloro-pyridin-2-yl)-2-methyl-piperazin-1-yl]-pyrimidin-4-yl}-(4-trifluoromethyl-phenyl)-amine (R)] |
| ≤ 1 µM | FC(F)(F)c1ccc(Nc2nc(N3CCOCC3)nc(N3CCN(c4ncccc4C(F)(F)F)CC3)n2)cc1 [Compound 23, {4-Morpholin-4-yl-6-[4-(3-trifluoromethyl-pyridin-2-yl)-piperazin-1-yl]-[1,3,5]triazin-2-yl}-(4-trifluoromethyl-phenyl)-amine] |
| ≤ 1 µM | C[C@@H]1CN(c2ncccc2F)CCN1c1nc(Nc2ccc(C(C)(C)C)cc2)nc(OCc2ccccc2C(F)(F)F)n1 [Compound 7, (4-tert-Butyl-phenyl)-[4-[4-(3-fluoro-pyridin-2-yl)-2-methyl-piperazin-1-yl]-6-(2-trifluoromethyl-benzyloxy)-[1,3,5]triazin-2-yl]-amine (R)] |
| ≤ 1 µM | Fc1cccc(Nc2nc(N3CCOCC3)nc(N3CCN(c4ncccc4Cl)CC3)n2)c1 [Compound 60, {4-[4-(3-Chloro-pyridin-2-yl)-piperazin-1-yl]-6-morpholin-4-yl-[1,3,5]triazin-2-yl}-(3-fluoro-phenyl)-amine] |
| ≤ 1 µM | Clc1ccc(Nc2nc(N3CCOCC3)nc(N3CCN(c4ncccc4Cl)CC3)n2)cc1 [Compound 62, (4-Chloro-phenyl)-{4-[4-(3-chloro-pyridin-2-yl)-piperazin-1-yl]-6-morpholin-4-yl-[1,3,5]triazin-2-yl}-amine] |
| ≤ 1 µM | CC(C)CCNc1nc(Nc2ccc(C(F)(F)F)cc2)nc(N2CCN(c3ncccc3C(F)(F)F)C[C@@H]2C)n1 [Compound 15, N-(3-Methyl-butyl)-6-[2-methyl-4-(3-trifluoromethyl-pyridin-2-yl)-piperazin-1-yl]-N′-(4-trifluoromethyl-phenyl)-[1,3,5]triazine-2,4-diamine (S)] |
| ≤ 1 µM | C[C@@H]1CN(c2ncccc2C(F)(F)F)CCN1c1nc(Cl)nc(Nc2ccc(C(C)(C)C)cc2)n1 [Compound 3, (4-tert-Butyl-phenyl)-{4-chloro-6-[2-methyl-4-(3-trifluoromethyl-pyridin-2-yl)-piperazin-1-yl]-[1,3,5]triazin-2-yl}-amine (R)] |
| ≤ 1 µM | CN(C)c1nc(Nc2ccc(C(F)(F)F)cc2)nc(N2CCN(c3ccccc3)CC2)n1 [Compound 42, N,N-Dimethyl-6-(4-phenyl-piperazin-1-yl)-N′-(4-trifluoromethyl-phenyl)-[1,3,5]triazine-2,4-diamine] |
| ≤ 1 µM | CCN(CC)Cc1nc(Nc2ccc(F)c(F)c2)cc(N2CCN(c3ncccc3C(F)(F)F)CC2)n1 [Compound 111, {2-Diethylaminomethyl-6-[4-(3-trifluoromethyl-pyridin-2-yl)-piperazin-1-yl]-pyrimidin-4-yl}-(3,4-difluoro-phenyl)-amine] |
| ≤ 1 µM | Cc1ccccc1Nc1nc(N2CCOCC2)cc(N2CCN(c3ncccc3C(F)(F)F)CC2)n1 [Compound 85, {4-Morpholin-4-yl-6-[4-(3-trifluoromethyl-pyridin-2-yl)-piperazin-1-yl]pyrimidin-2-yl}-o-tolyl-amine] |
| ≤ 1 µM | CCN(CC)c1nc(Nc2ccc(F)c(F)c2)nc(N2CCN(c3ncccc3S(C)(=O)=O)C[C@H]2C)n1 [Compound 102, N-(3,4-Difluoro-phenyl)-N′,N′-diethyl-6-[4-(3-methanesulfonyl-pyridin-2-yl)-2-methyl-piperazin-1-yl]-[1,3,5]triazine-2,4-diamine (R)] |
| ≤ 1 µM | CCN(CC)c1nc(Nc2ccc(F)c(F)c2)nc(N2CCN(c3ncccc3Cl)C[C@H]2C)n1 [Compound 100, 6-[4-(3-Chloro-pyridin-2-yl)-2-methyl-piperazin-1-yl]-N-(3,4-difluoro-phenyl)-N′,N′-diethyl-[1,3,5]triazine-2,4-diamine (R)] |
| ≤ 1 µM | CC(C)N(C)c1nc(Nc2cccc(F)c2)nc(N2CCN(c3ncccc3Cl)CC2)n1 [Compound 79, 6-[4-(3-Chloro-pyridin-2-yl)-piperazin-1-yl]-N-(3-fluoro-phenyl)-N′-isopropyl-N′-methyl-[1,3,5]triazine-2,4-diamine] |
| ≤ 1 µM | CN(C)c1nc(Nc2ccc(C(F)(F)F)cc2)nc(N2CCN(c3ncccc3Cl)CC2)n1 [Compound 44, 6-[4-(3-Chloro-pyridin-2-yl)-piperazin-1-yl]-N,N-dimethyl-N′-(4-trifluoromethyl-phenyl)-[1,3,5]triazine-2,4-diamine] |
| ≤ 1 µM | CCN(CC)c1nc(Nc2ccc(F)c(F)c2)nc(N2CCN(c3ncccc3C(F)(F)F)C[C@H]2C)n1 [Compound 99, N-(3,4-Difluoro-phenyl)-N′,N′-diethyl-6-[2-methyl-4-(3-trifluoromethyl-pyridin-2-yl)-piperazin-1-yl]-[1,3,5]triazine-2,4-diamine (R)] |
| ≤ 1 µM | CCCNc1nc(Nc2cccc(F)c2)nc(N2CCN(c3ncccc3Cl)CC2)n1 [Compound 81, 6-[4-(3-Chloro-pyridin-2-yl)-piperazin-1-yl]-N-(3-fluoro-phenyl)-N′-propyl-[1,3,5]triazine-2,4-diamine] |
